Reference: ChEMBL document CHEMBL1201862, “PubChem BioAssay data set” (2004)
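In this assay, cells in 96-well plates receive the compound at five concentrations for 48 hours. Endpoints are linearly interpolated between the surrounding concentrations. Here, GI50 denotes the concentration required for 50% inhibition of growth.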 The source made the active and inactive calls. No stated cut-off is given here; in the data, active = GI50 up to about 1.1 µM and inactive = higher.

Columns and labels:
Test in all cases: NCI anticancer screen, dose series, 48 h
SR = tested on: SR
NCI-H23 = tested on: NCI-H23
SK-OV-3 = tested on: SK-OV-3
CCRF-CEM = tested on: CCRF-CEM
HCT-15 = tested on: HCT-15
OVCAR-3 = tested on: OVCAR-3
T47D = tested on: T47D
K562 = tested on: K562
Malme-3M = tested on: Malme-3M
EKVX = tested on: EKVX
HCT-116 = tested on: HCT-116
SF-295 = tested on: SF-295
786-0 = tested on: 786-0
Hs-578T = tested on: Hs-578T
HOP-92 = tested on: HOP-92
LOX IMVI = tested on: LOX IMVI
NCI/ADR-RES = tested on: NCI/ADR-RES
SN12C = tested on: SN12C
M14 = tested on: M14
SK-MEL-28 = tested on: SK-MEL-28
NCI-H522 = tested on: NCI-H522
SNB-75 = tested on: SNB-75
RPMI-8226 = tested on: RPMI-8226
A549 = tested on: A549
SNB-19 = tested on: SNB-19
SK-MEL-5 = tested on: SK-MEL-5
DU-145 = tested on: DU-145
SF-268 = tested on: SF-268
ACHN = tested on: ACHN
KM12 = tested on: KM12
OVCAR-4 = tested on: OVCAR-4
UO-31 = tested on: UO-31
CAKI-1 = tested on: CAKI-1
COLO 205 = tested on: COLO 205
MDA-MB-231 = tested on: MDA-MB-231
TK-10 = tested on: TK-10
RXF 393 = tested on: RXF 393
UACC-62 = tested on: UACC-62
PC-3 = tested on: PC-3
HL-60 = tested on: HL-60
SK-MEL-2 = tested on: SK-MEL-2
MCF7 = tested on: MCF7
HT-29 = tested on: HT-29
HCC 2998 = tested on: HCC 2998
MDA-N = tested on: MDA-N
U-251 = tested on: U-251
OVCAR-5 = tested on: OVCAR-5
SW-620 = tested on: SW-620
NCI-H460 = tested on: NCI-H460
SF-539 = tested on: SF-539
BT-549 = tested on: BT-549
UACC-257 = tested on: UACC-257
HOP-62 = tested on: HOP-62
MDA-MB-435 = tested on: MDA-MB-435
IGROV-1 = tested on: IGROV-1

Cc1ccc(SC(=O)N2C(=S)N=C(NC3CCCCC3)C23CCCCC3)cc1
GI50 (SR): 57.7 µM (inactive)
GI50 (NCI-H23): > 100 µM (inactive)
GI50 (SK-OV-3): > 100 µM (inactive)
GI50 (CCRF-CEM): 29 µM (inactive)
GI50 (HCT-15): 87.9 µM
GI50 (OVCAR-3): 50.6 µM (inactive)
GI50 (T47D): 52.1 µM (inactive)
GI50 (K562): > 100 µM (inactive)
GI50 (Malme-3M): > 100 µM (inactive)
GI50 (EKVX): > 100 µM (inactive)
GI50 (HCT-116): > 100 µM (inactive)
GI50 (SF-295): > 100 µM (inactive)
GI50 (786-0): > 100 µM (inactive)
GI50 (Hs-578T): 62.2 µM (inactive)
GI50 (HOP-92): > 100 µM (inactive)
GI50 (LOX IMVI): 95.5 µM (inactive)
GI50 (NCI/ADR-RES): > 100 µM (inactive)
GI50 (SN12C): > 100 µM (inactive)
GI50 (M14): > 100 µM (inactive)
GI50 (SK-MEL-28): > 100 µM (inactive)
GI50 (NCI-H522): 65.8 µM (inactive)
GI50 (SNB-75): 57.9 µM (inactive)
GI50 (RPMI-8226): > 100 µM (inactive)
GI50 (A549): 75.5 µM (inactive)
GI50 (SNB-19): > 100 µM (inactive)
GI50 (SK-MEL-5): > 100 µM (inactive)
GI50 (DU-145): > 100 µM (inactive)
GI50 (SF-268): > 100 µM (inactive)
GI50 (ACHN): 80 µM (inactive)
GI50 (KM12): 69.7 µM (inactive)
GI50 (OVCAR-4): > 100 µM (inactive)
GI50 (UO-31): 46.6 µM (inactive)
GI50 (CAKI-1): > 100 µM (inactive)
GI50 (COLO 205): 43.4 µM (inactive)
GI50 (MDA-MB-231): > 100 µM (inactive)
GI50 (TK-10): 25.2 µM (inactive)
GI50 (RXF 393): 70 µM (inactive)
GI50 (UACC-62): > 100 µM (inactive)
GI50 (PC-3): 44.6 µM (inactive)
GI50 (HL-60): 38.6 µM (inactive)
GI50 (SK-MEL-2): > 100 µM (inactive)
GI50 (MCF7): 51.2 µM (inactive)
GI50 (HT-29): 57.9 µM (inactive)
GI50 (HCC 2998): > 100 µM (inactive)
GI50 (MDA-N): > 100 µM (inactive)
GI50 (U-251): 95.3 µM (inactive)
GI50 (OVCAR-5): > 100 µM (inactive)
GI50 (SW-620): > 100 µM (inactive)
GI50 (NCI-H460): 81.3 µM (inactive)
GI50 (SF-539): > 100 µM (inactive)
GI50 (BT-549): 57.5 µM (inactive)
GI50 (UACC-257): 82.8 µM (inactive)
GI50 (HOP-62): > 100 µM (inactive)
GI50 (MDA-MB-435): > 100 µM (inactive)
GI50 (IGROV-1): 36.1 µM (inactive)
